Literature values as cited in patent US11946086B2, “Gene involved in synthesis of cyclic peptide compound, method for producing cyclic peptide compound using the same, and transformant comprising the same” (NATIONAL INSTITUTE OF ADVANCED INDUSTRIAL SCIENCE AND …, priority 2017, dated 2024).
Non-standard residues stand in square brackets, D forms with d. Residues, ends and D or L forms follow the SMILES beside them. NMeI = CC[CH](C)[CH](NC)C(=O)O; NMeD = CN[CH](CC(=O)O)C(=O)O; NMeV = CN[CH](C(=O)O)C(C)C; Pip = O=C(O)[CH]1CCCCN1; Lac = C[CH](O)C(=O)O

Tested on: plant pathogenic bacteria, and, in particular, fungi
Details: against plant pathogenic bacteria

CCC(C)C1C(=O)NCC(=O)N(C)C(C(C)C)C(=O)NC(Cc2ccc(OC)cc2)C(=O)OC(C)C(=O)N2CCCCC2C(=O)N(C)C(C(C)C)C(=O)NC(C(C)C)C(=O)N(C)C(CC(=O)O)C(=O)N(C)C(C(C)C)C(=O)N1C (stereo not shown) [KK-1, Tyrosine, N-[N-[N-[N-[N-[N-[N-[N-[[1-(2-hydroxy-1-oxopropyl)-2-piperidinyl]carbonyl]-N-methylvalyl]valyl]-N-methyl-a-aspartyl]-N-methylvalyl]-N-methylisoleucyl]glycyl]-N-methylvalyl]-O-methyl-, d2-lactone (9CI)] (cyclo(G[NMeV]Y(Me)[Lac][Pip][NMeV]V[NMeD][NMeV][NMeI]); configuration not given here)
bactericidal activity: potent bactericidal activity
